{
  "source": "patent US11802120B2",
  "about": "“Fused cyclic urea derivatives as CRHR2 antagonist” (RaQualia Pharma Inc., priority 2018, dated 2023)",
  "data": [
    {"target": "T1, human CRHR2-alpha (Homo sapiens, UniProt Q13324)", "T1 sequence (Q13324 1-411)": "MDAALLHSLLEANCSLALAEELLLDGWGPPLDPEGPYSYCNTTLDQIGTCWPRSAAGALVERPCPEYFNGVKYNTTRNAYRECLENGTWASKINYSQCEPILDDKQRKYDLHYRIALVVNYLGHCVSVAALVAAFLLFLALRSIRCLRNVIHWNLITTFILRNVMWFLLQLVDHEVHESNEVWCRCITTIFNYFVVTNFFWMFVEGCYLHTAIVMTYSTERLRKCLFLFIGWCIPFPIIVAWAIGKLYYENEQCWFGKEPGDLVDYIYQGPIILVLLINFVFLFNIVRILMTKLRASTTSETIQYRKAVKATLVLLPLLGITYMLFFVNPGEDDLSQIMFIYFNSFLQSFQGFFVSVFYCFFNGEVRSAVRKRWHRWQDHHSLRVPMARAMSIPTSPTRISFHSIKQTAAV", "test": "cAMP functional assay for human CRHR2 (LANCE Ultra cAMP, TR-FRET)", "type": "cell-based", "conditions": "CHO-K1 cells expressing human CRHR2-alpha, agonist human urocortin2 at EC80, cAMP; read-out: IC50 against CRHR2", "how_it_was_run": "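CHO-K1 cells stably expressing each receptor, serum-starved and cryopreserved, were preincubated with compound 30 min at 25° C in HBSS buffer with 0.5 mM IBMX, pH 7.4, then stimulated 30 min with EC80 agonist (urocortin2 for CRHR2, CRF for CRHR1). cAMP read by TR-FRET; IC50 from percent-inhibition curves.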", "units": {"IC50": "nM"}, "values": [
      {"smiles": "O=C(N[C@H]1CC[C@H](Cn2c(=O)n(-c3ccn4cncc4c3)c3ccccc32)CC1)c1cc(Cl)cnc1C(F)(F)F", "note": "[Example 342, 5-chloro-N-((1r,4r)-4-((3-(imidazo[1,5-a]pyridin-7-yl)-2-oxo-2,3-dihydro-1H-benzo[d]imidazol-1-yl)methyl)cyclohexyl)-2-(tri-fluoromethyl)nicotinamide]", "IC50": "< 300"},
      {"smiles": "O=C(N[C@H]1CC[C@H](Cn2c(=O)n(-c3cncc(N4CCOCC4)c3)c3ccccc32)CC1)c1cc(Cl)cnc1C(F)F", "note": "[Example 476, 5-chloro-2-(difluoromethyl)-N-((1r,4r)-4-((3-(5-morpholino-pyridin-3-yl)-2-oxo-2,3-dihydro-1H-benzo[d]imidazol-1-yl)methyl)cyclohexyl) nicotinamide]", "IC50": "< 300"},
      {"smiles": "O=C(N[C@H]1CC[C@H](Cn2c(=O)n(-c3cccc4cccnc34)c3ccccc32)CC1)c1cc(Cl)cnc1C(F)(F)F", "note": "[Example 353, 5-chloro-N-((1r,4r)-4-((2-oxo-3-(quinolin-8-yl)-2,3-dihydro-1H-benzo[d]imidazol-1-yl)methyl)cyclo-hexyl)-2-(trifluoromethyl) nicotinamide]", "IC50": "< 300"},
      {"smiles": "Cc1ncc(Cl)cc1C(=O)N[C@H]1CC[C@H](Cn2c(=O)n(-c3ccccc3Cl)c3ncccc32)CC1", "note": "[Example 234, 5-chloro-N-((1r,4r)-4-((3-(2-chlorophenyl)-2-oxo-2,3-dihydro-1H-imidazo[4,5-b]pyridin-1-yl)methyl)cyclo-hexyl)-2-methylnicotinamide]", "IC50": "< 300"},
      {"smiles": "CCn1nc2ccccc2c1C(=O)N[C@H]1CC[C@H](Cn2c(=O)n(-c3ccc(C(C)=O)cc3)c3ccccc32)CC1", "note": "[Example 41, N-((1r,4r)-4-((3-(4-acetylphenyl)-2-oxo-2,3-dihydro-1H-benzo[d]imidazol-1-yl)methyl)cyclohexyl)-2-ethyl-2H-indazole-3-carboxamide]", "IC50": "< 300"},
      {"smiles": "CNc1cccc(-n2c(=O)n(C[C@H]3CC[C@H](NC(=O)c4cc(Cl)cnc4C(F)F)CC3)c3ccccc32)n1", "note": "[Example 662, 5-chloro-2-(difluoromethyl)-N-((1r,4r)-4-((3-(6-(methylamino)pyridin-2-yl)-2-oxo-2,3-dihydro-1H-benzo[d]imidazol-1-yl)methyl)cyclohexyl)nicotinamide]", "IC50": "< 300"},
      {"smiles": "Cc1ncc(Cl)cc1C(=O)N[C@H]1CC[C@H](Cn2c(=O)n(-c3ccc(NC[C@@H]4CCCO4)nc3)c3ccccc32)CC1", "note": "[Example 109, 5-chloro-2-methyl-N-((1S,4r)-4-((2-oxo-3-(6-((((S)-tetrahydro-furan-2-yl)methyl)amino)pyridin-3-yl)-2,3-dihydro-1H-benzo[d]imidazol-1-yl)methyl)cyclohexyl)nicotinamide]", "IC50": "< 300"},
      {"smiles": "O=C(N[C@H]1CC[C@H](Cn2c(=O)n(-c3ccc(N4CC[C@@H](O)C4)nc3)c3ccccc32)CC1)c1cc(Cl)cnc1C(F)F", "note": "[Example 461, 5-chloro-2-(difluoromethyl)-N-((1R,4r)-4-((3-(6-((R)-3-hydroxypyrrolidin-1-yl)pyridin-3-yl)-2-oxo-2,3-dihydro-1H-benzo[d]imidazol-1-yl)methyl)cyclohexyl) nicotinamide]", "IC50": "< 300"},
      {"smiles": "CC(C)(O)C(=O)Nc1ccc(-n2c(=O)n(C[C@H]3CC[C@H](NC(=O)c4cc(Cl)cnc4C(F)F)CC3)c3ccccc32)cn1", "note": "[Example 669, 5-chloro-2-(difluoromethyl)-N-((1r,4r)-4-((3-(6-(2-hydroxy-2-methylpropana-mido)pyridin-3-yl)-2-oxo-2,3-dihydro-1H-benzo[d]imidazol-1-yl)methyl)cyclo-hexyl)nicotinamide]", "IC50": "< 300"},
      {"smiles": "Cc1ncc(Cl)cc1C(=O)N[C@H]1CC[C@H](Cn2c(=O)n(-c3ccc(SCCO)nc3)c3ccccc32)CC1", "note": "[Example 412, 5-chloro-N-((1r,4r)-4-((3-(6-((2-hydroxyethyl)thio)pyridin-3-yl)-2-oxo-2,3-dihydro-1H-benzo[d]imidazol-1-yl)methyl)cyclohexyl)-2-methylnicotinamide]", "IC50": "< 300"},
      {"smiles": "Cc1ccc(-n2c(=O)n(C[C@H]3CC[C@H](NC(=O)c4cc(Cl)cnc4C(F)F)CC3)c3nccnc32)cc1", "note": "[Example 506, 5-chloro-2-(difluoromethyl)-N-((1r,4r)-4-((2-oxo-3-(p-tolyl)-2,3-dihydro-1H-imidazo[4,5-b]pyrazin-1-yl)methyl)cyclohexyl)nicotinamide]", "IC50": "< 300"},
      {"smiles": "CNC(=O)c1ccc(-n2c(=O)n(C[C@H]3CC[C@H](NC(=O)c4cc(Cl)cnc4C(F)F)CC3)c3ccc(F)cc32)cn1", "note": "[Example 562, 5-(3-(((1r,4r)-4-(5-chloro-2-(difluororomethyl)nicotina-mido)cyclohexyl)methyl)-6-fluoro-2-oxo-2,3-dihydro-1H-benzo[d]imidazol-1-yl)-N-methylpicolinamide]", "IC50": "< 300"},
      {"smiles": "COC1CN(c2ccc(-n3c(=O)n(C[C@H]4CC[C@H](NC(=O)c5cc(Cl)cnc5C(F)F)CC4)c4ccccc43)cn2)C1", "note": "[Example 554, 5-chloro-2-(difluoromethyl)-N-((1r,4r)-4-((3-(6-(3-methoxyazetidin-1-yl)pyridin-3-yl)-2-oxo-2,3-dihydro-1H-benzo[d]imidazol-1-yl)methyl)cyclohexyl)nicotinamide]", "IC50": "< 300"},
      {"smiles": "Cc1ncc(Cl)cc1C(=O)N[C@H]1CC[C@H](Cn2c(=O)n(-c3ccc(NC4CC4)nc3)c3ccccc32)CC1", "note": "[Example 101, 5-chloro-N-((1r,4r)-4-((3-(6-(cyclopropylamino)pyridin-3-yl)-2-oxo-2,3-dihydro-1H-benzo[d]imidazol-1-yl)methyl)cyclohexyl)-2-methylnicotinamide]", "IC50": "< 300"},
      {"smiles": "Cc1ncc(Cl)cc1C(=O)N[C@H]1CC[C@H](Cn2c(=O)n(-c3ccc(C4=CCOCC4)nc3)c3ccccc32)CC1", "note": "[Example 84, 5-chloro-N-((1r,4r)-4-((3-(6-(3,6-dihydro-2H-pyran-4-yl)pyridin-3-yl)-2-oxo-2,3-dihydro-1H-benzo[d]imidazol-1-yl)methyl)cyclohexyl)-2-methylnicotinamide]", "IC50": "< 300"},
      {"smiles": "O=C(N[C@H]1CC[C@H](Cn2c(=O)n(-c3ccc4nccnc4c3)c3ccccc32)CC1)c1cc(Cl)cnc1C(F)(F)F", "note": "[Example 407, 5-chloro-N-((1r,4r)-4-((2-oxo-3-(quinoxalin-6-yl)-2,3-dihydro-1H-benzo[d]imidazol-1-yl)methyl)cyclohexyl)-2-(trifluoromethyl)nicotinamide]", "IC50": "< 300"},
      {"smiles": "Cc1ncc(Cl)cc1C(=O)N[C@H]1CC[C@H](Cn2c(=O)n(-c3cnc4c(c3)c(C)cn4C)c3ccccc32)CC1", "note": "[Example 409, 5-chloro-N-((1r,4r)-4-((3-(1,3-dimethyl-1H-pyrrolo[2,3-b]pyridin-5-yl)-2-oxo-2,3-dihydro-1H-benzo[d]imidazol-1-yl)methyl)cyclohexyl)-2-methylnicotinamide]", "IC50": "< 300"},
      {"smiles": "Cc1ncc(Cl)cc1C(=O)N[C@H]1CC[C@H](Cn2c(=O)n(-c3ccc4ncccc4c3)c3ccccc32)CC1", "note": "[Example 344, 5-chloro-2-methyl-N-((1r,4r)-4-((2-oxo-3-(quinolin-6-yl)-2,3-dihydro-1H-benzo[d]imidazol-1-yl)methyl)cyclo-hexyl)nicotinamide]", "IC50": "< 300"},
      {"smiles": "COCCOc1ccc(-n2c(=O)n(C[C@H]3CC[C@H](NC(=O)c4cc(Cl)cnc4C(F)F)CC3)c3ccccc32)cn1", "note": "[Example 477, 5-chloro-2-(difluoromethyl)-N-((1r,4r)-4-((3-(6-(2-methoxy-ethoxy)pyridin-3-yl)-2-oxo-2,3-dihydro-1H-benzo[d]imidazol-1-yl)methyl)cyclohexyl) nicotinamide]", "IC50": "< 300"},
      {"smiles": "O=C(N[C@H]1CC[C@H](Cn2c(=O)n(-c3ccc(N[C@H]4CCOC4)nc3)c3ccccc32)CC1)c1cc(Cl)cnc1C(F)F", "note": "[Example 372, 5-chloro-2-(difluoromethyl)-N-((1S,4r)-4-((2-oxo-3-(6-(((S)-tetrahydrofuran-3-yl)amino)pyridin-3-yl)-2,3-dihydro-1H-benzo[d]imidazol-1-yl)methyl)cyclohexyl)nicotinamide]", "IC50": "< 300"},
      {"smiles": "Cc1ccc(-n2c(=O)n(C[C@H]3CC[C@H](NC(=O)c4cc(Cl)ccc4C(F)(F)F)CC3)c3ccccc32)cn1", "note": "[Example 270, 5-chloro-N-((1r,4r)-4-((3-(6-methylpyridin-3-yl)-2-oxo-2,3-dihydro-1H-benzo[d]imidazol-1-yl)methyl)cyclo-hexyl)-2-(trifluoromethyl) benzamide]", "IC50": "< 300"},
      {"smiles": "CC(=O)N1CCc2cc(-n3c(=O)n(C[C@H]4CC[C@H](NC(=O)c5cc(Cl)cnc5C)CC4)c4ccccc43)ccc2C1", "note": "[Example 218, N-((1r,4r)-4-((3-(2-acetyl-1,2,3,4-tetrahydroisoquinolin-6-yl)-2-oxo-2,3-dihydro-1H-benzo[d]imidazol-1-yl)methyl)cyclohexyl)-5-chloro-2-methylnicotinamide]", "IC50": "< 300"},
      {"smiles": "COc1ccc(F)c(-n2c(=O)n(C[C@H]3CC[C@H](NC(=O)c4cc(Cl)cnc4C(F)F)CC3)c3cnccc32)c1", "note": "[Example 726, 5-chloro-2-(difluoromethyl)-N-((1r,4r)-4-((1-(2-fluoro-5-methoxyphenyl)-2-oxo-1H-imidazo[4,5-c]pyridin-3(2H)-yl)methyl)cyclohexyl) nicotinamide]", "IC50": "< 300"},
      {"smiles": "CNC(=O)c1ccc(-n2c(=O)n(C[C@H]3CC[C@H](NC(=O)c4cc(Cl)cnc4N(C)C)CC3)c3ccccc32)cn1", "note": "[Example 328, 5-(3-(((1r,4r)-4-(5-chloro-2-(dimethylamino)nicotinamido)cyclohexyl)methyl)-2-oxo-2,3-dihydro-1H-benzo[d]imidazol-1-yl)-N-methyl-picolinamide]", "IC50": "< 300"}
    ]}
  ]
}
